Source: US20030187007A1, “Inhibitors of protein kinase for the treatment of disease” (priority 2001, published 2003)
Where a name gives a salt, the structure may show the parent alone.

Experiments:
[1] = molecular target: CDK2 complexed with cyclin A (Homo sapiens, UniProt P24941); assay: Cyclin dependent kinase activity assay, phosphorylation of synthetic peptide PKTPKKAKKLRRR; type: biochemical; conditions: 0.1 mM ATP, read-out: CDK 2 Activity*
Method: (§1) The assay of cyclin dependent kinase activity was determined by monitoring the phosphorylation of a synthetic peptide, PKTPKKAKKLRRR. The assay mixture contained 0.1 mM cold ATP, ^33P-γ-ATP (2000-4000 cpm/μL), 0.1 mM peptide, 1 mM DTT, and 10 mM MgCl2 in 100 mM HEPES buffer pH 7.4. The assay mixture, along with inhibitor and CDK enzyme (0.3-0.4 U/mL; either CDK5 complexed with p25, CDK2 complexed with complexed with cyclin A), was mixed together in a microtiter plate in a final volume of 40 μL, sealed and incubated for 2 hours at 30° C. Following incubation, a 15 μL aliquot was added to a Whatman P81 filtration plate containing 100 μL 0.5% phosphoric acid. This mixture was allowed to stand for 5 minutes prior to filtration on a vacuum manifold. The filter plate was washed with 5 successive additions of 300 μL 0.5% phosphoric acid. The filtration plate was air dried for 10 minutes before sealing the bottom. After addition of scintillation fluid to the sealed plate, phosphorylated peptide was quantified in a scintillation counter.

[2] = molecular target: CDK5 complexed with p25 (Homo sapiens, UniProt Q00535); assay: as above; type: biochemical; conditions: CDK5 complexed with p25, 0.1 mM ATP; read-out: CDK 5 Activity*
Sequence of CDK5 complexed with p25 (Q00535 whole entry): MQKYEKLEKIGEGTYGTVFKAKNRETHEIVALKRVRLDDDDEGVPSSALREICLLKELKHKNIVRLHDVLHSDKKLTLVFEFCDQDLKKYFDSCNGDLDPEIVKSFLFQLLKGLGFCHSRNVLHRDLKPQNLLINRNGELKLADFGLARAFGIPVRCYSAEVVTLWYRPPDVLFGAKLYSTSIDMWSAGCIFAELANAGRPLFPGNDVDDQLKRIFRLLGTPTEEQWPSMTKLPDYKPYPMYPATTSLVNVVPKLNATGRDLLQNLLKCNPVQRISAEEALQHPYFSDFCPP
Sequence of CDK5 complexed with p25 (Q15078 99-307 partner limits assumed): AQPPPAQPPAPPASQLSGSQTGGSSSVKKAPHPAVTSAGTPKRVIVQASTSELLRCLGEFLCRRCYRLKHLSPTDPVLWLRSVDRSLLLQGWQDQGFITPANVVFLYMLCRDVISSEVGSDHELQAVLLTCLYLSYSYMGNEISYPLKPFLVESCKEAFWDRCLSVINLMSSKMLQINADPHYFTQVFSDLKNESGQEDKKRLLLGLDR
Method: as §1

Row | IC50 [1] [nM] | IC50 [2] [nM] | Compound
1 | 500 to 2000 | < 500 | NC(=O)N/N=C/c1cc(-c2cccc(C(=O)O)c2)ccc1O [Example 18, 5-(3-Carboxyphenyl)salicylaldehyde semicarbazone hydrochloride]
2 | > 5000 | < 500 | NC(=S)N/N=C/c1cc(-c2ccc(C(=O)O)cc2)ccc1O [Example 19, 5-(4-Carboxyphenyl)salicylaldehyde thiosemicarbazone]
3 | 500 to 2000 | < 500 | NC(=S)N/N=C/c1cc(-c2cccc(O)c2)ccc1O [Example 20, 5-(3-Hydroxyphenyl)salicylaldehyde thiosemicarbazone]
4 | < 500 | < 500 | NC(=S)N/N=C/c1cc(-c2ccc(O)cc2)ccc1O [Example 21, 5-(4-Hydroxyphenyl)salicylaldehyde thiosemicarbazone]
5 | < 500 | < 500 | NC(=S)N/N=C/c1cc(-c2ccc(O)cc2O)ccc1O [Example 27, 5-(2,4-Dihydroxyphenyl)salicylaldehyde thiosemicarbazone]
6 | 500 to 2000 | 2000 to 5000 | NC(=S)N/N=C/c1cc(-c2ccc(O)cc2)c(O)cc1O [Example 28, 4-Hydroxy-5-(4-hydroxyphenyl)salicylaldehyde thiosemicarbazone]
7 | 500 to 2000 | > 5000 | NC(=O)N/N=C/c1cc(-c2ccc(O)cc2)c(O)cc1O [Example 29, 4-Hydroxy-5-(4-hydroxyphenyl)salicylaldehyde semicarbazone hydrochloride]
8 | 2000 to 5000 | < 500 | NC(=S)N/N=C/c1cc(-c2ccncc2)ccc1O [Example 30, 5-(4-Pyridyl)salicylaldehyde thiosemicarbazone]
9 | 500 to 2000 | < 500 | NC(=S)N/N=C/c1cc(-c2cccnc2)ccc1O [Example 31, 5-(3-Pyridyl)salicylaldehyde thiosemicarbazone]
10 | 2000 to 5000 | 2000 to 5000 | NC(=S)N/N=C/c1cc(-c2cncnc2)ccc1O [Example 32, 5-(5-Pyrimidyl)salicylaldehyde thiosemicarbazone]
11 | < 500 | 500 to 2000 | NC(=S)N/N=C/c1cc(-c2cccs2)ccc1O [Example 33, 5-(2-Thienyl)salicylaldehyde thiosemicarbazone]
12 | < 500 | 500 to 2000 | NC(=S)N/N=C/c1cc(-c2ccsc2)ccc1O [Example 34, 5-(3-Thienyl)salicylaldehyde thiosemicarbazone]
13 | 500 to 2000 | > 5000 | NC(=S)N/N=C/c1cc(-c2ccc(Cl)s2)ccc1O [Example 35, 5-[2-(5-Chloro-thienyl)]salicylaldehyde thiosemicarbazone]
14 | > 5000 | 500 to 2000 | COC(=O)/C=C/c1ccc(O)c(/C=N/NC(N)=S)c1 [Example 37, Methyl (3-formyl-4-hydroxy)cinnamate, thiosemicarbazone]
15 | < 500 | < 500 | NC(=S)N/N=C/c1cc(/C=C/C(=O)O)ccc1O [Example 38, 3-Formyl-4-hydroxycinnamic acid, thiosemicarbazone]
16 | < 500 | < 500 | NC(=S)N/N=C/c1cc(CCC(=O)O)ccc1O [Example 40, 3-(3-Formyl-4-hydroxyphenyl)propionic acid, thiosemicarbazone]
17 | < 500 | < 500 | NC(=O)N/N=C/c1c(O)ccc2ccccc12 [Example 41, 2-[(2-Hydroxy-1-naphthyl)methylidene]hydrazine-1-carbamide hydrochloride]
18 | < 500 | < 500 | NC(=S)N/N=C/c1cc2ccc(O)cc2cc1O [Example 43]
19 | > 5000 | 2000 to 5000 | Nc1nccc(-c2c(O)ccc3ccccc23)n1 [Example 46, 2-Amino-4-[1-(2-hydroxynaphthyl)]pyrimidine]
20 | < 500 | < 500 | Cc1cc(-c2cc(-c3ccc(O)cc3)ccc2O)nc(N)n1 [Example 47, 3-(2-Amino-6-methyl-pyrimidin-4-yl)-biphenyl-4,4′-diol]
21 | < 500 | < 500 | Nc1ccc(-c2cc(-c3ccc(O)cc3)ccc2O)nc1 [Example 48, 3-(5-Amino-pyridin-2-yl)-biphenyl-4,4′-diol]

Row | IC50 [1] [nM] | IC50 [2] [nM] | Compound
22 | < 500 | < 500 | Nc1cccc(-c2cc(-c3ccc(O)cc3)ccc2O)n1 [Example 49, 3-(6-Amino-pyridin-2-yl)-biphenyl-4,4′-diol]
23 | < 500 | < 500 | COc1cc(-c2cc(-c3ccc(O)cc3)ccc2O)nc(N)n1 [Example 50, 3-(2-Amino-6-methoxy-pyrimidin-4-yl)-biphenyl-4,4′-diol]
24 | < 500 | < 500 | Nc1cnc(-c2cc(-c3ccc(O)cc3)ccc2O)nc1N [Example 51, 3-(4,5-Diamino-pyrimidin-2-yl)-biphenyl-4,4′-diol]
25 | < 500 | < 500 | Nc1cc(-c2cc(-c3ccc(O)cc3)ccc2O)nc(N)n1 [Example 52, 3-(2,6-Diamino-pyrimidin-4-yl)-biphenyl-4,4′-diol]
26 | < 500 | < 500 | Nc1nccc(-c2cc(-c3ccc(O)c(F)c3)ccc2O)n1 [Example 53, 3-(2-Amino-pyrimidin-4-yl)-3′-fluoro-biphenyl-4,4′-diol]
27 | < 500 | < 500 | Nc1nc(Cl)cc(-c2cc(-c3ccc(O)cc3)ccc2O)n1 [Example 54, 3-(2-Amino-6-chloro-pyrimidin-4-yl)-biphenyl-4,4′-diol]
28 | < 500 | < 500 | Nc1nc(NCCO)cc(-c2cc(-c3ccc(O)cc3)ccc2O)n1 [Example 55, 3-[2-Amino-6-(2-hydroxy-ethylamino)-pyrimidin-4-yl]-biphenyl-4,4′-diol]
29 | < 500 | < 500 | Nc1nc(NCC(O)CO)cc(-c2cc(-c3ccc(O)cc3)ccc2O)n1 (stereo not drawn) [Example 56, 3-[2-Amino-6-(2,3-dihydroxy-propylamino)-pyrmidin-4-yl]-biphenyl-4,4′-diol]
30 | < 500 | < 500 | Nc1nccc(-c2cc(-c3ccncc3)ccc2O)n1 [Example 62, 2-(2-Amino-pyrimidin-4-yl)-4-pyridin-4-yl-phenol]
31 | > 5000 | < 500 | Nc1nccc(-c2cc(-c3cccnc3)ccc2O)n1 [Example 63, 2-(2-Amino-pyrimidin-4-yl)-4-pyridin-3-yl-phenol]
32 | < 500 | < 500 | Nc1cccc(-c2ccc(O)c(-c3ccnc(N)n3)c2)n1 [Example 64, 4-(6-Amino-pyridin-2-yl)-2-(2-amino-pyrimidin-4-yl)-phenol]
33 | < 500 | 500 to 2000 | Nc1ccc(-c2ccc(O)c(-c3ccnc(N)n3)c2)cn1 [Example 65, 4-(6-Amino-pyridin-3-yl)-2-(2-amino-pyrimidin-4-yl)-phenol]
34 | 500 to 2000 | 500 to 2000 | Nc1ncc(-c2ccc(O)c(-c3ccnc(N)n3)c2)cn1 [Example 66, 2-(2-Amino-pyrimidin-4-yl)-4-(2-amino-pyrimidin-5-yl)-phenol]
35 | < 500 | < 500 | Nc1nccc(-c2ccc(O)c(-c3ccnc(N)n3)c2)n1 [Example 68, 2,4-Bis-(2-amino-pyrimidin-4-yl)-phenol]
36 | < 500 | < 500 | Nc1nccc(-c2cc(-c3ccc[nH]3)ccc2O)n1 [Example 69, 2-(2-Amino-pyrimidin-4-yl)-4-(1H-pyrrol-2-yl)-phenol]
37 | > 5000 | 2000 to 5000 | Nc1nccc(-c2cc(-c3c[nH]c(=O)[nH]c3=O)ccc2O)n1 [Example 70, 5-[3-(2-Amino-pyrimidin-4-yl)-4-hydroxy-phenyl]-1 H-pyrimidine-2.4-dione]
38 | < 500 | < 500 | Nc1cccc(-c2cc(-c3ccnc(N)n3)ccc2O)n1 [Example 71, 2-(2-Aminopyridin-6-yl)-4-(2-aminopyrimidin-4-yl)-phenol]
39 | < 500 | < 500 | Nc1nc(NCCCCCO)cc(-c2cc(-c3ccc(O)cc3)ccc2O)n1 [Example 77, 3-[2-Amino-6-(5-hydroxy-pentylamino)-pyrimidin-4-yl]-biphenyl-4,4′-diol]
40 | > 5000 | < 500 | Nc1nc(-c2cc(-c3ccc(O)cc3)ccc2O)cc(N2CCNCC2)n1 [Example 78, 3-(2-Amino-6-piperazin-1-yl-pyrimidin-4-yl)-biphenyl-4,4′-diol]
41 | < 500 | < 500 | Nc1nc(-c2cc(-c3ccc(O)cc3)ccc2O)cc(N2CCCC(CO)C2)n1 (stereo not drawn) [Example 82, 3-[2-Amino-6-(3-hydroxymethyl-piperidin-1-yl)-pyrimidin-4-yl]-biphenyl-4,4′-diol]

Row | Compound | IC50 [1] [nM] | IC50 [2] [nM]
42 | NC(=S)N/N=C/c1c(O)ccc2ccccc12 [Example 42, 2-[(2-Hydroxy-1-naphthyl)methylidene]hydrazine-1-carbothioamide] | < 500 | < 500
